Reference: patent US20110206770A1, “ATOVAQUONE WITH A PARTICLE SIZE DIAMETER RANGE (D90) OF GREATER THAN 3 MICRONS TO ABOUT 10 MICRONS” (Alphapharm Pty. Ltd., priority 2008, published 2011)

Assay: D90 particle size of atovaquone by Malvern Mastersizer
Type: physicochemical
Protocol: […]

[1] = Run 1, stir time 1 min, 30 mg in 900 mL purified water, polysorbate 80, 10 min sonication, 400 rpm

| SMILES | D90 particle size [1] [microns] | D90 particle size (Run 1, stir time 2 min) [microns] | D90 particle size (Run 1, stir time 3 min) [microns] | D90 particle size (Run 1, stir time 4 min) [microns] | D90 particle size (Run 1, stir time 5 min) [microns] | D90 particle size (Run 2, stir time 1 min) [microns] | D90 particle size (Run 2, stir time 2 min) [microns] | D90 particle size (Run 2, stir time 3 min) [microns] | D90 particle size (Run 2, stir time 4 min) [microns] | D90 particle size (Run 2, stir time 5 min) [microns] | D90 particle size (Run 3, stir time 1 min) [microns] | D90 particle size (Run 3, stir time 2 min) [microns] | D90 particle size (Run 3, stir time 3 min) [microns] | D90 particle size (Run 3, stir time 4 min) [microns] | D90 particle size (Run 3, stir time 5 min) [microns] | D90 particle size (Run 4, stir time 1 min) [microns] | D90 particle size (Run 4, stir time 2 min) [microns] | D90 particle size (Run 4, stir time 3 min) [microns] | D90 particle size (Run 4, stir time 4 min) [microns] | D90 particle size (Run 4, stir time 5 min) [microns] |
| --- | --- | --- | --- | --- | --- | --- | --- | --- | --- | --- | --- | --- | --- | --- | --- | --- | --- | --- | --- | --- |
| O=C1C(O)=C([C@H]2CC[C@H](c3ccc(Cl)cc3)CC2)C(=O)c2ccccc21 [Example 1, trans-2-[4-(4-chlorophenyl)cyclohexyl]-3-hydroxy-1,4-naphthalenedione] | 5.088 | 5.089 | 5.090 | 5.088 | 5.088 | 5.182 | 5.183 | 5.182 | 5.183 | 5.184 | 5.049 | 5.049 | 5.048 | 5.047 | 5.048 | 5.283 | 5.282 | 5.283 | 5.284 | 5.281 |
| O=C1C(O)=C([C@H]2CC[C@H](c3ccc(Cl)cc3)CC2)C(=O)c2ccccc21 [Example 2, trans-2-[4-(4-chlorophenyl)cyclohexyl]-3-hydroxy-1,4-naphthalenedione] | 6.177 | 6.176 | 6.175 | 6.176 | 6.176 | 6.258 | 6.257 | 6.258 | 6.260 | 6.259 | 6.338 | 6.339 | 6.336 | 6.339 | 6.337 | 6.572 | 6.572 | 6.572 | 6.569 | 6.571 |
| O=C1C(O)=C([C@H]2CC[C@H](c3ccc(Cl)cc3)CC2)C(=O)c2ccccc21 [Example 3, trans-2-[4-(4-chlorophenyl)cyclohexyl]-3-hydroxy-1,4-naphthalenedione] | 4.280 | 4.280 | 4.280 | 4.280 | 4.280 | 4.260 | 4.260 | 4.261 | 4.261 | 4.260 | 4.124 | 4.124 | 4.123 | 4.123 | 4.125 | 4.285 | 4.285 | 4.286 | 4.286 | 4.286 |

Continued, values first:

| D90 particle size [1] [microns] | D90 particle size (Run 1, stir time 2 min) [microns] | D90 particle size (Run 1, stir time 3 min) [microns] | D90 particle size (Run 1, stir time 4 min) [microns] | D90 particle size (Run 1, stir time 5 min) [microns] | D90 particle size (Run 2, stir time 1 min) [microns] | D90 particle size (Run 2, stir time 2 min) [microns] | D90 particle size (Run 2, stir time 3 min) [microns] | D90 particle size (Run 2, stir time 4 min) [microns] | D90 particle size (Run 2, stir time 5 min) [microns] | D90 particle size (Run 3, stir time 1 min) [microns] | D90 particle size (Run 3, stir time 2 min) [microns] | D90 particle size (Run 3, stir time 3 min) [microns] | D90 particle size (Run 3, stir time 4 min) [microns] | D90 particle size (Run 3, stir time 5 min) [microns] | D90 particle size (Run 4, stir time 1 min) [microns] | D90 particle size (Run 4, stir time 2 min) [microns] | D90 particle size (Run 4, stir time 3 min) [microns] | D90 particle size (Run 4, stir time 4 min) [microns] | D90 particle size (Run 4, stir time 5 min) [microns] | SMILES |
| --- | --- | --- | --- | --- | --- | --- | --- | --- | --- | --- | --- | --- | --- | --- | --- | --- | --- | --- | --- | --- |
| 4.651 | 4.652 | 4.652 | 4.653 | 4.651 | 4.628 | 4.628 | 4.629 | 4.631 | 4.630 | 4.836 | 4.836 | 4.837 | 4.836 | 4.984 | 4.814 | 4.814 | 4.815 | 4.814 | 4.814 | O=C1C(O)=C([C@H]2CC[C@H](c3ccc(Cl)cc3)CC2)C(=O)c2ccccc21 [Example 4, trans-2-[4-(4-chlorophenyl)cyclohexyl]-3-hydroxy-1,4-naphthalenedione] |
| 7.971 | 7.949 | 8.215 | 8.276 | 7.948 | 7.726 | 7.723 | 7.726 | 7.727 | 7.723 | 7.978 | 7.974 | 7.977 | 7.979 | 7.973 |  |  |  |  |  | O=C1C(O)=C([C@H]2CC[C@H](c3ccc(Cl)cc3)CC2)C(=O)c2ccccc21 [Example 5, trans-2-[4-(4-chlorophenyl)cyclohexyl]-3-hydroxy-1,4-naphthalenedione] |
